Experiments:
LSD-1 = LSD-1 (Homo sapiens, UniProt O60341); assay: Cellular thermal shift assay (CETSA) in PC-9 cells, LSD-1; assay type: cell-based; details: 100 μM
Description: To date activity of T151742 towards other flavoenzymes has not been identified at this time. We utilized the Cellular Thermal Shift Assay (CETSA) to determine target engagement of T151742 in vitro using the non-small cell lung cancer (NSCLC) cell line PC-9. The EGFR driven PC-9 cell line was chosen as new treatment strategies are needed in EGFR driven NSCLC as most patients relapse and become resistant to current targeted therapies with development of further mutations such as T790M, C797S as well as emergence of EGFR independent tumors^42, 43. […] First, we determined the aggregation temperature (Tagg) of ERO1α, ERO1β, and LSD-1, which are all FAD dependent enzymes and potential in vitro targets of T15742. […]
Upon addition of T151742, Tagg was quantified for ERO1α, ERO1β, and LSD-1. Quantification of the average of n=3 independent experiments based on western blot analysis for ERO1α, ERO1β, and LSD-1. […] Cellular viability was determined by MTT assay. n=3 independent experiments performed in quadruplicates. ****p<0.0001; by two-way ANOVA.
Cell Lines: PC-9 cell line used was obtained from Sigma Aldrich and grown in RPMI 1640 medium with 10% fetal bovine serum and 1% penicillin/streptomycin. […] Plate was then read on the BioTek Cytation 5 at 530/590 nm. […]

MAO-B = target: T1, MAO-B (Homo sapiens, UniProt P27338); details: cited from earlier work
T1 sequence (P27338 1-520): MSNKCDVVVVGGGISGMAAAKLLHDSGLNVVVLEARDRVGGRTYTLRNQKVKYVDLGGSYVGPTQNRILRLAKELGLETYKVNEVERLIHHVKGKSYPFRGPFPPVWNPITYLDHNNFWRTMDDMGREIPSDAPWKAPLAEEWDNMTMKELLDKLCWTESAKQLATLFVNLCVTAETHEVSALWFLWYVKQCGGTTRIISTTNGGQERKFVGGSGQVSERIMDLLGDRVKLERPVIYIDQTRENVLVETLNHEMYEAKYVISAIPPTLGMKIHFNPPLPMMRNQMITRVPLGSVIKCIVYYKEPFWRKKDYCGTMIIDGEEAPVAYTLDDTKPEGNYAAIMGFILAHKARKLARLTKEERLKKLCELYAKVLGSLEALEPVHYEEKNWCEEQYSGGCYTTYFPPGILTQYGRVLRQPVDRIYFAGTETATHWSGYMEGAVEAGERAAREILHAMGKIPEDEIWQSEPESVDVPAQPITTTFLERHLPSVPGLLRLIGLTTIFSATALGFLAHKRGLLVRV

## CN(C)c1ccc(/C=C2\Oc3cc(O)ccc3C2=O)cc1 [Compound T151742]
LSD-1
  change of Tagg for LSD-1: did not change
MAO-B
  inhibition of / activity against MAO-B: showed activity
